Patent publication US11795144B2, “Inhibitors of RAC1 and uses thereof for treating cancers” (INSTITUT NATIONAL DE LA SANTE ET DE LA RECHERCHE MEDICALE …, priority 2017, dated 2023)
Entries after “also recorded” stand apart in the source; their conditions may differ.

Experiments:
fibroblast = experiment: Cell adhesion assay using impedance technology (xCELLigence); type: cell-based; conditions: fibroblasts pre-treated with 10 μm
Text: (§1) FIGS. 1 to 3 relate to the inhibition of the Rac-induced cell functions by compound (2) (or A4.1). […] Ruffles are indicated by arrows (left panel). Percentages of cells with ruffles were quantified (right panel). Results shown are representative of 3 independent experiments. […] Left panel, representative records with arrows indicating the cell location at different times. Right panel, quantification of cell speed in each experimental conditions. Results shown are representative of 2 independent experiments. […] Lower panel, quantification of cell adhesion. Results shown are representative of 3 independent experiments.
Cells (10000/well) were seeded in a 96 well plate microtiter xCELLigence assay plate (E-Plate) (ACEA Biosciences Inc.) and placed on the Real-time xCELLigence Cell Analyzer (Roche Applied Science) platform at 37° C. to measure the “cell index” every 5 min for a period of 6 hours. The cell index unit is defined as (Rn−Rb)/15. Rn is the cell electrode impedance of the well when it contains cells. Rb is the background impedance of the well with the media alone.

RAC1 = RAC1 (Homo sapiens, UniProt P63000)
Rac = Rac activator-induced membrane ruffling (actin reorganization) in 3T3 fibroblasts; type: cell-based; conditions: 3T3 cells, compound added 1 h before Rac activation
Text: as §1
(§2) cDNA coding for constitutive active Rac1 (Rac^V12-RFP) were transfected in NIH3T3 with jetPEI (Polyplus transfection) according to the manufacturer's instructions. After treatments, fibroblasts were fixed with 4% paraformaldehyde in PBS, permeabilized in PBS 0.5% Triton X-100, and incubated with 130 μg/mL of FITC-conjugated phalloidin (Sigma) to visualize F-actin. After staining, images were captured by a fluorescence microscope (Nikon). The actin cytoskeleton organization was analyzed to observe Rac1-dependent ruffle formation.

MCF-7 cells = experiment: Primary focus formation assay; type: cell-based; conditions: MCF-7, 3 weeks of treatment
Experimental: For primary focus formation assays, MCF-7 cells were plated at a density of 10^5 cells/well of a 6-well plate. Cells were allowed to reach confluency and were maintained on complete growth medium supplemented with indicated concentration of A4.1 (or compound (2)) or vehicle until focus formation occurred. Foci of transformed cells was quantitated after 21 days.
Malignant transformation of cells is typically associated with increased proliferation, loss of contact inhibition, acquisition of anchorage-independent growth potential, and the ability to form foci in culture cells. A focus formation assay was used to test whether (2) affects the clonogenic potential of breast cancer cells MCF-7. After 3 weeks of treatments, the cells's foci were fixed, stained and counted ([…]).

Rac^V12 = biological target: T1, Rac^V12 (Homo sapiens, UniProt P63000, G12V); experiment: Ruffle formation and membrane location of constitutive active RFP-Rac^V12 in fibroblasts; type: cell-based
T1 construct: expressed in transfected cells; host or cells: NIH3T3
Experimental: as §2
Rac1 over activity is implicated in various steps of oncogenesis including initiation, progression, invasion, and metastasis. The ability of (2) to inhibit a constitutive active mutant of Rac1, Rac^V12 was evaluated. In control condition, expression of RFP-Rac^V12 in fibroblasts induces changes in actin cytoskeleton leading to ruffles formation (data not shown). This effect is prevented by (2) (10 μM).

[1] = tested on: primary fibroblasts from human breast cancer; experiment: Invasion in 3D gel of primary fibroblasts from breast cancer; type: cell-based; conditions: 10 μM, after 48 h
Experimental: (§3) FIG. 4 relates to the inhibition of the Rac-dependent cell functions involved in cancer cells by (2). FIG. 4A: Breast cancer cell line MDA-MB-468 and primary human fibroblast from breast cancer tumors were seeded in 3D-gel containing or not (2). […] FIG. 4B: Effect of (2) on foci assay.
(§4) To confirm this hypothesis, cancer cells invasion was analyzed in 3D gel. The breast cancer cell line MDA-MB-468 or primary fibroblasts from human breast cancer were seeded in gels containing or not (2) (10 μM).

[2] = Pharmacokinetics after intraperitoneal injection; type: in vivo, male C57BL6 adult mice; conditions: male, C57BL6, mouse, plasma; IP route, mice
Experimental: FIG. 5 relates to the pharmacokinetics of compound (2) by analyzing kidney, brain, liver, heart, plasma samples, and lungs from male C57BL6 adult mice after intraperitonal injection. The curves of this Figure represent the concentration in μg/g over time in minutes.
(§5) To test whether compound (2) would have an acceptable therapeutic index in vivo, the pharmacokinetics of compound (2) were measured by analyzing plasma samples, brain, heart, kidney, liver and lungs from male C57BL6 adult mice after intraperitonal injection (IP) (FIG. 5). In addition, we evaluated the effect of chronic (daily during 4 weeks) IP injections of compound (2) on physiological parameters: body weight, glycemia, hepatic and renal functions (FIGS. 6 to 8).

3T3 cells = experiment: Unidirectional cell migration (cell speed); type: cell-based
Text: Percentages of cells with ruffles were quantified (right panel). Results shown are representative of 3 independent experiments. […] Left panel, representative records with arrows indicating the cell location at different times. Right panel, quantification of cell speed in each experimental conditions. Results shown are representative of 2 independent experiments. […] Lower panel, quantification of cell adhesion. Results shown are representative of 3 independent experiments.
Cells (1000/well) were seeded in a 96 well plate with […] fibronectin stripes (CytooPlates Motility, CYTOO) in medium with 1% SVF and allowed to spread for 4 hours before capturing time-lapse images for 24 hours (image/10 minutes) on a Widefield Leica DMI 6000B drove with Metamorph software. Cells speed was measured with ImageJ software.

[3] = tested on: MDA-MB-468 (Luciferase+) cell line; experiment: Metastasis in xenograft mouse tumor model; type: in vivo, NMRI mice; conditions: 25 mg/kg/d IP during 4 weeks after exeresis of primary tumor
Experimental: FIG. 9 relates to the in vivo efficiency of compound (2) to inhibit metastasis in a xenograft mouse tumor model using MDA-MB-468 (Luciferase+) cell line in 5-week-old NMRI mice.
The in vivo efficiency of compound (2) to inhibit metastasis was evaluated in a xenograft mouse tumor model using MDA-MB-468 (Luciferase+) cell line in 5-week-old NMRI mice. When the tumor volume reached 1,000 mm^3, exeresis of the primary tumor was done to monitor predominantly metastasis initiation and progression. Compound (2) was administered everyday via intraperitoneal injection (25 mg/kg/d) during 4 weeks. Then, xenografted mice were sacrified and organs were imaged (FIGS. 9A and 9B).

[4] = Chronic IP injections: body weight, glycemia, hepatic and renal functions; type: in vivo, mice; conditions: 25 mg/kg IP daily during 4 weeks
Experimental: FIGS. 6 to 8 relate to the effect of chronic IP injections of compound (2) on physiological parameters: body weight, glycemia, hepatic and renal functions.
as §5

MDA-MB-468 = experiment: Cancer cell invasion in 3D gel; type: cell-based; conditions: 10 μM, after 48 h
Experimental: as §3, §4

Row | SMILES | Cell adhesion (fibroblast) | IC50 (RAC1) [nM] | Relative activity (NSC23766) (RAC1; compared with NSC23766) | Efficiency of Rac activator to induce ruffle / actin reorganization (Rac) | Efficiency of Rac activator to induce ruffle / actin reorganization (Rac; listed as A4.1) | IC50 (MCF-7 cells; Homo sapiens, MCF7, 504 h) [nM] | Focus diameter and focus numbers compared with control cells (MCF-7 cells) | Location of Rac^V12 at the plasma membrane (Rac^V12) | Ruffles formation induced by RFP-Rac^V12 (Rac^V12; 10 μM) | Decrease of cell invasion compared to control [1] [%] | bioavailability [2] [%] | Cell migration (cell speed) (3T3 cells) | Metastases [3] | Side effects after chronic injection [4] | Decrease of cell invasion compared to control (MDA-MB-468) [%]
1 | CCN(CC)CCCC(C)Nc1nc(C)cc(Nc2ccc3nc(C)cc(N)c3c2)n1 (stereo not shown) [NSC23766, reference compound] | slow down | – | – | – | – | – | – | – | – | – | – | – | – | – | –
2 | COc1ccc(OC)c(NS(=O)(=O)c2ccc(NC(=O)CCCc3ccc(C)cc3)cc2)c1 [(3), N-(4-(N-(2,5-dimethoxyphenyl)sulfamoyl)phenyl)-4-(p-tolyl) Butanamide] | – | 0.1 | > | – | – | – | – | – | – | – | – | – | – | – | –
3 | COc1ccc(OC)c(NS(=O)(=O)c2ccc(NC(=O)CCSc3ccc(C)cc3)cc2)c1 [Compound (2), N-(4-(N-(2,5-dimethoxyphenyl)sulfamoyl)phenyl)-3-(p-tolylthio)propanamide] | decreases cell adhesion; also recorded: higher inhibition | – | – | strongly decreased | blocks Rac activator-induced actin reorganization | 2.3 | smaller focus diameter as well as focus numbers | limits the location of Rac^V12 at the plasma membrane | prevented | > 50 | 81.5 | decreases cell migration; also recorded: higher inhibition | decreases significantly bone, hepatic, uterine and ovarian metastases | no major side effects | > 50
